Data as given in patent US6933126B2, “Membrane transportable fluorescent substrates” (Applera Corporation, priority 2001, dated 2005).

Tests used:
[1] = target: T1, β-galactosidase in Psi-2-BAG-α cells (Escherichia coli, UniProt P00722); assay: FDG detection of β-galactosidase in Psi-2-BAG-α cells, passive load vs "SUPERFECT" complex; assay type: cell-based; conditions: for Fluorescence (w "SUPERFECT") / Fluorescence (w/o "SUPERFECT"): Cells + Supernatant, 2 hrs, ex 485/20, em 530/25; for Fluorescence (w "SUPERFECT"): 0.6 mM FDG with 25 μl "SUPERFECT" carrier; for Fluorescence (w/o "SUPERFECT"): 0.6 mM FDG, passive load
T1 construct: expressed in transfected cells; host or cells: Psi-2-BAG-α cells (own knowledge: mouse NIH-3T3-derived psi-2 packaging line stably carrying the BAG lacZ retroviral vector)
T1 sequence (P00722 whole entry): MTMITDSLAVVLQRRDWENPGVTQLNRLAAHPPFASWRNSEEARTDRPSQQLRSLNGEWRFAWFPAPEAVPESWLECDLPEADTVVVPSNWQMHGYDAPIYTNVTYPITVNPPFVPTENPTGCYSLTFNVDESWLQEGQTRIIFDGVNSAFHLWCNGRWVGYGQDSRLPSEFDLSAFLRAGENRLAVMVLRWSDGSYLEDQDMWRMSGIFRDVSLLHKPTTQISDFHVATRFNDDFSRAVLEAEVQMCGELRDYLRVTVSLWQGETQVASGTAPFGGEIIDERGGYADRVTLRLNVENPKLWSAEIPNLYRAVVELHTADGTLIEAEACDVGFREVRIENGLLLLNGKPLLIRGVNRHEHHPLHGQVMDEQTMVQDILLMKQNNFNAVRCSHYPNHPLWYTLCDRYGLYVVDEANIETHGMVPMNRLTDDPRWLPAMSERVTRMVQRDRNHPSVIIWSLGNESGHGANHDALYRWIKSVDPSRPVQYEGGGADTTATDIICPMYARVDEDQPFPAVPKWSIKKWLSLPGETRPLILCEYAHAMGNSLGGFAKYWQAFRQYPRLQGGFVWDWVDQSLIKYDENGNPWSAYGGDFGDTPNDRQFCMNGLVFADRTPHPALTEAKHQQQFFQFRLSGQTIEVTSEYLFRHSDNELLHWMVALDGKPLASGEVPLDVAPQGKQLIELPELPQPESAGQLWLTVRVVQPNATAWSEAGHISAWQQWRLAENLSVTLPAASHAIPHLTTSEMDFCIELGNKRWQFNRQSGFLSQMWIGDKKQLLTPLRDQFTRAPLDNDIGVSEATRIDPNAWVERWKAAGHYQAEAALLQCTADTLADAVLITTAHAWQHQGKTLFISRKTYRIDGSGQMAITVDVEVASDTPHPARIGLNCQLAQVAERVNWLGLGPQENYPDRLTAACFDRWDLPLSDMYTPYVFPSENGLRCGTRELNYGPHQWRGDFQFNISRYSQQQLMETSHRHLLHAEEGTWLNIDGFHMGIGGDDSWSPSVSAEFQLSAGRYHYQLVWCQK
Description: A first experiment was conducted to determine the effect of complex formation on FDG detection of β-galactosidase in Psi-2-BAG-α cells. First, FDG detection was measured using FDG without a transporter or carrier complexed thereto (passive load). This measured value was compared to a measurement using a complex of FDG and an activated polyamino dendrimer (e.g., “SUPERFECT”, which is a trademark of Qiagen N.V.).
For the passive load test, two vials of cells were prepared. First, two vials each having 330,000 psi-2-BAG-α cells suspended in 250 μl 0.6 mM FDG in Opti-MEM were prepared. A first vial of cells was incubated at 4° C. for 2 hrs and the second vial of cells was incubated at 37° C. for 2 hrs.
For the polyamino dendrimer complex, two vials of cells were prepared in the following manner. First, two vials each having 330,000 psi-2-BAG-α cells suspended in 250 μl 0.6 mM FDG in Opti-MEM containing 25 μl “SUPERFECT” as a polycationic carrier were prepared. The first vial of cells was incubated at 4° C. for 2 hrs and the second vial of cells was incubated at 37° C. for 2 hrs.
Following incubation, 20 μl triplicate samples of the above four cell suspensions (passive/4° C., passive/37° C., “SUPERFECT”/4° C., “SUPERFECT”/37° C.) were added to a 96-well plate.
(§1) The 96-well plate was read on a Cytofluor 4000 with excitation filter 485/20 and emission filter 530/25. The data was analyzed as triplicate averages.

[2] = tested on: β-galactosidase complementation in FRAP/FKBP12 (B14) cells; assay: FDG detection of rapamycin-induced β-galactosidase complementation in FRAP/FKBP12 (B14) cells; assay type: cell-based; conditions: for Fluorescence (w "SUPERFECT") / Fluorescence (w/o "SUPERFECT"): 90 min at 37° C.; for Fluorescence (w "SUPERFECT"): 0.6 mM FDG with "SUPERFECT" carrier; for Fluorescence (w/o "SUPERFECT"): 0.6 mM FDG, passive load; for Fluorescence signal to noise ratio (S/N): Induced cells
Description: A second experiment was conducted to determine the effect of fluorescent substrate complex formation on FDG detection of rapamycin-induced β-galactosidase complementation in FRAP/FKBPI2 (B14) cells.
A 96-well plate was plated with FRAP/FKBP12 cells at 10,000 cells per well. Half of the cells were incubated overnight with rapamycin to induce β-galactosidase complementation. The next day, the cells were washed with Opti-MEM. Half of the cells were incubated for 90 min at 37° C. with 254 μl 0.6 mM FDG (fluorescein-di-β-D-galactoside) in Opti-MEM. The remaining cells were incubated 90 min at 37° C. with 0.6 mM FDG, containing “SUPERFECT” as a carrier (14 μl “SUPERFECT” in 240 μl 0.6 mM FDG in Opti-MEM).
as §1

[3] = Induced cells (rapamycin overnight)

Structure (SMILES): O=C1OC2(c3ccc(O[C@@H]4O[C@H](CO)[C@H](O)[C@H](O)[C@H]4O)cc3Oc3cc(O[C@@H]4O[C@H](CO)[C@H](O)[C@H](O)[C@H]4O)ccc32)c2ccccc21 [FDG, fluorescein di-β-D-galactopyranoside]
- Fluorescence (w "SUPERFECT") ([1]; 4° C.): 8,343
- Fluorescence (w/o "SUPERFECT") ([1]; 4° C.): 807
- Fluorescence (w "SUPERFECT") ([1]; 37° C.): 33,943
- Fluorescence (w/o "SUPERFECT") ([1]; 37° C.): 2492
- Increase of fluorescence signal with Superfect-assisted load ([1]; Superfect-assisted load of FDG vs passive load): ≥ 10 fold
- Fluorescence (w "SUPERFECT") [2, 3]: 12,721
- Fluorescence (w/o "SUPERFECT") [2, 3]: 594
- Fluorescence signal to noise ratio (S/N) ([2]; "SUPERFECT" assisted load of FDG): approximately 37
- Fluorescence signal to noise ratio (S/N) ([2]; uncomplexed or passive load of FDG (w/o "SUPERFECT")): about 2
- Fluorescence (w "SUPERFECT") ([2]; Uninduced cells): 338
- Fluorescence (w/o "SUPERFECT") ([2]; Uninduced cells): 253
